Results: patent US7608718B2, “4,5-dihydro-1H-pyrazole derivatives having potent CB1-antagonistic activity” (Solvay Pharmaceuticals B.V., priority 2001, dated 2009)

melting point [°C]	Structure (SMILES)
216 to 217	CSC(=NS(=O)(=O)N1CCS(=O)(=O)CC1)N1CC(c2ccccc2)C(c2ccc(Cl)cc2)=N1 (stereo not drawn) [Example 53, 3-(4-Chlorophenyl)-N-((1,1-dioxidothiomorpholin-4-yl)sulfonyl)-4-phenyl-4,5-dihydro-1H-pyrazole-1-carboximidothioic acid methyl ester]
158	CCN(CCN(C)C)S(=O)(=O)N=C(SC)N1CC(c2ccccc2)C(c2ccc(Cl)cc2)=N1 (stereo not drawn) [Example 95, 3-(4-Chlorophenyl)-N-(((2-(dimethylamino)ethyl)ethylamino)sulfonyl)-4-phenyl-4,5-dihydro-1H-pyrazole-1-carboximidothioic acid methyl ester]
169 to 170	CC(C)NC(=NS(=O)(=O)N(C)C)N1CC(c2ccccc2)C(c2ccc(Cl)cc2)=N1 (stereo not drawn) [Example 59, 3-(4-Chlorophenyl)-N′-((dimethylamino)sulfonyl)-N-isopropyl-4-phenyl-4,5-dihydro-1H-pyrazole-1-carboxamidine]
159 to 160	CSC(=NS(=O)(=O)N(C)C)N1CC(c2ccccc2)C(c2ccc(Cl)cc2)=N1 (stereo not drawn) [Example 36, 3-(4-Chlorophenyl)-N-((dimethylamino)sulfonyl)-4-phenyl-4,5-dihydro-1H-pyrazole-1-carboximidothioic acid methyl ester]
173 to 175	CNC(=NS(=O)(=O)N(C)C)N1CC(c2ccccc2F)C(c2ccc(Cl)cc2)=N1 (stereo not drawn) [Example 84, 3-(4-Chlorophenyl)-N′-((dimethylamino)sulfonyl)-4-(2-fluorophenyl)-N-methyl-4,5-dihydro-1H-pyrazole-1-carboxamidine]
143 to 145	CSC(=NS(=O)(=O)N1CCc2ccccc2C1)N1CC(c2ccccc2)C(c2ccc(Cl)cc2)=N1 (stereo not drawn) [Example 38, 3-(4-Chlorophenyl)-4-phenyl-N-((1,2,3,4-tetrahydroisoquinolin-2-yl)sulfonyl)-4,5-dihydro-1H-pyrazole-1-carboximidothioic acid methyl ester]
128 to 131	CN(C)S(=O)(=O)N=C(NCCF)N1CC(c2ccccc2)C(c2ccc(Cl)cc2)=N1 (stereo not drawn) [Example 32, 3-(4-Chlorophenyl)-N′-((dimethylamino)sulfonyl)-N-(2-fluoroethyl)-4-phenyl-4,5-dihydro-1H-pyrazole-1-carboxamidine]
110	CNC(=NS(=O)(=O)N(C)C)N1CC(c2cccc(F)c2)C(c2ccc(Cl)cc2)=N1 (stereo not drawn) [Example 85, 3-(4-Chlorophenyl)-N′-((dimethylamino)sulfonyl)-4-(3-fluorophenyl)-N-methyl-4,5-dihydro-1H-pyrazole-1-carboxamidine]
144 to 146	CN1CCC(NC(=NS(=O)(=O)N(C)C)N2CC(c3ccccc3)C(c3ccc(Cl)cc3)=N2)CC1 (stereo not drawn) [Example 60, 3-(4-Chlorophenyl)-N′-((dimethylamino)sulfonyl)-N-(1-methylpiperidin-4-yl)-4-phenyl-4,5-dihydro-1H-pyrazole-1-carboxamidine]
141 to 142	CCCN(CCC)S(=O)(=O)N=C(NC)N1CC(c2ccccc2)C(c2ccc(Cl)cc2)=N1 (stereo not drawn) [Example 26, 3-(4-Chlorophenyl)-N′-((dipropylamino)sulfonyl)-N-methyl-4-phenyl-4,5-dihydro-1H-pyrazole-1-carboxamidine]
170 to 172	CONC(=NS(=O)(=O)N(C)C)N1CC(c2ccccc2)C(c2ccc(Cl)cc2)=N1 (stereo not drawn) [Example 34, 3-(4-Chlorophenyl)-N′-((dimethylamino)sulfonyl)-N-methoxy-4-phenyl-4,5-dihydro-1H-pyrazole-1-carboxamidine]
168 to 170	CNC(=NS(=O)(=O)N1CCCCC1)N1CC(c2cccc(C(F)(F)F)c2)C(c2ccc(Cl)cc2)=N1 (stereo not drawn)
223 to 235	CNC(=NS(=O)(=O)N1CCOCC1)N1CC(c2c(F)cccc2F)C(c2ccc(Cl)cc2)=N1 (stereo not drawn) [Example 79, 3-(4-Chlorophenyl)-4-(2,6-difluorophenyl)-N-methyl-N′-((morpholin-4-yl)sulfonyl)-4,5-dihydro-1H-pyrazole-1-carboxamidine]
231 to 233	CSC(=NS(=O)(=O)N1CCOCC1)N1CC(c2c(F)cccc2F)C(c2ccc(Cl)cc2)=N1 (stereo not drawn) [Example 50, 3-(4-Chlorophenyl)-4-(2,6-difluorophenyl)-N-((morpholin-4-yl)sulfonyl)-4,5-dihydro-1H-pyrazole-1-carboximidothioic acid methyl ester]
260 to 263	CNC(=NS(=O)(=O)N1CCCCC1)N1CC(c2c(F)cccc2F)C(c2ccc(Cl)cc2)=N1 (stereo not drawn) [Example 81, 3-(4-Chlorophenyl)-4-(2,6-difluorophenyl)-N-methyl-N′-((piperidin-1-yl)sulfonyl)-4,5-dihydro-1H-pyrazole-1-carboxamidine]
196 to 198	CSC(=NS(=O)(=O)N1CCCCC1)N1CC(c2ccccc2F)C(c2ccc(Cl)cc2)=N1 (stereo not drawn) [Example 48, 3-(4-Chlorophenyl)-4-(2-fluorophenyl)-N-((piperidin-1-yl)sulfonyl)-4,5-dihydro-1H-pyrazole-1-carboximidothioic acid methyl ester]

The remaining lines, values behind:

Structure (SMILES)	melting point [°C]
O=S(=O)(N=C(NC1CC1)N1CC(c2ccccc2)C(c2ccc(Cl)cc2)=N1)N1CCCCC1 (stereo not drawn) [Example 56, 3-(4-Chlorophenyl)-N-cyclopropyl-4-phenyl-N′-((piperidin-1-yl)sulfonyl)-4,5-dihydro-1H-pyrazole-1-carboxamidine]	142 to 144
CCN(C)S(=O)(=O)N=C(SC)N1CC(c2cccnc2)C(c2ccc(Cl)cc2)=N1 (stereo not drawn) [Example 44, 3-(4-Chlorophenyl)-N-(((ethyl)methylamino)sulfonyl)-4-(pyridin-3-yl)-4,5-dihydro-1H-pyrazole-1-carboximidothioic acid methyl ester]	133 to 136
CCN(CC)S(=O)(=O)N=C(NC)N1CC(O)(c2ccccc2)C(c2ccc(Cl)cc2)=N1 (stereo not drawn) [Example 57, 3-(4-Chlorophenyl)-N′-((diethylamino)sulfonyl)-N-methyl-4-hydroxy-4-phenyl-4,5-dihydro-1H-pyrazole-1-carboxamidine]	180 to 182
CNC(=NS(=O)(=O)N(C)C)N1CC(c2c(F)cccc2F)C(c2ccc(Cl)cc2)=N1 (stereo not drawn) [Example 80, 3-(4-Chlorophenyl)-4-(2,6-difluorophenyl)-N′-((dimethylamino)sulfonyl)-N-methyl-4,5-dihydro-1H-pyrazole-1-carboxamidine]	214 to 216
CNC(=NS(=O)(=O)N1CCC(O)CC1)N1CC(c2ccccc2)C(c2ccc(Cl)cc2)=N1 (stereo not drawn) [Example 88, 3-(4-Chlorophenyl)-N′-((4-hydroxypiperidin-1-yl)sulfonyl)-N-methyl-4-phenyl-4,5-dihydro-1H-pyrazole-1-carboxamidine]	80
CN(C)S(=O)(=O)N=C(NCCO)N1CC(c2ccccc2)C(c2ccc(Cl)cc2)=N1 (stereo not drawn) [Example 18, 3-(4-Chlorophenyl)-N′-((dimethylamino)sulfonyl)-N-(2-hydroxyethyl)-4-phenyl-4,5-dihydro-1H-pyrazole-1-carboxamidine]	123 to 126
CNC(=NS(=O)(=O)N1CCCCC1)N1CC(c2ccccc2F)C(c2ccc(Cl)cc2)=N1 (stereo not drawn) [Example 83, 3-(4-Chlorophenyl)-4-(2-fluorophenyl)-N-methyl-N′-((piperidin-1-yl)sulfonyl)-4,5-dihydro-1H-pyrazole-1-carboxamidine]	223 to 225
CCN(CC)S(=O)(=O)N=C(NC1CC1)N1CC(c2ccccc2)C(c2ccc(Cl)cc2)=N1 (stereo not drawn)	150 to 151
CNC(=NS(=O)(=O)N(C)C)N1CC(c2ccncc2)C(c2ccc(Cl)cc2)=N1 (stereo not drawn) [Example 74, 3-(4-Chlorophenyl)-N′-((dimethylamino)sulfonyl)-N-methyl-4-(pyridin-4-yl)-4,5-dihydro-1H-pyrazole-1-carboxamidine]	178 to 182
CCN(CC)S(=O)(=O)N=C(N(C)C)N1CC(O)(c2ccccc2)C(c2ccc(Cl)cc2)=N1 (stereo not drawn) [Example 63, 3-(4-Chlorophenyl)-N′-((diethylamino)sulfonyl)-N,N-dimethyl-4-hydroxy-4-phenyl-4,5-dihydro-1H-pyrazole-1-carboxamidine]	135 to 137
CNC(=NS(=O)(=O)N(C)C)N1CC(c2cccc(C(F)(F)F)c2)C(c2ccc(Cl)cc2)=N1 (stereo not drawn)	65 to 68
CCN(c1ccccc1)S(=O)(=O)N=C(NC)N1CC(c2ccccc2)C(c2ccc(Cl)cc2)=N1 (stereo not drawn)	145 to 147
CCN(c1ccccc1)S(=O)(=O)N=C(SC)N1CC(c2ccccc2)C(c2ccc(Cl)cc2)=N1 (stereo not drawn) [Example 39, 3-(4-Chlorophenyl)-N-(((ethyl)phenylamino)sulfonyl)-4-phenyl-4,5-dihydro-1H-pyrazole-1-carboximidothioic acid methyl ester]	143 to 146
CCN(CC)S(=O)(=O)N=C(SC)N1CC(c2ccccc2)C(c2ccc(Cl)cc2)=N1 (stereo not drawn) [Example 37, 3-(4-Chlorophenyl)-N-((diethylamino)sulfonyl)-4-phenyl-4,5-dihydro-1H-pyrazole-1-carboximidothioic acid methyl ester]	141 to 143
CCN(CC)S(=O)(=O)N=C(NC)N1CC(c2ccncc2)C(c2ccc(Cl)cc2)=N1 (stereo not drawn) [Example 71, N′-((Diethylamino)sulfonyl)-3-(4-chlorophenyl)-N-methyl-4-(pyridin-4-yl)-4,5-dihydro-1H-pyrazole-1-carboxamidine]	109 to 111
CN(C)S(=O)(=O)N=C(NCC(F)(F)F)N1CC(c2ccccc2)C(c2ccc(Cl)cc2)=N1 (stereo not drawn)	158 to 159
CCCN(CC)S(=O)(=O)N=C(NC)N1CC(c2ccccc2)C(c2ccc(Cl)cc2)=N1 (stereo not drawn) [Example 1, 3-(4-Chlorophenyl)-N′-(((ethyl)propylamino)sulfonyl)-N-methyl-4-phenyl-4,5-dihydro-1H-pyrazole-1-carboxamidine]	129 to 131
CSC(=NS(=O)(=O)N(C)C)N1CC(c2c(F)cccc2F)C(c2ccc(Cl)cc2)=N1 (stereo not drawn)	181 to 185
CNC(=NS(=O)(=O)N1CCCCC1)N1CC(c2cccc(F)c2)C(c2ccc(Cl)cc2)=N1 (stereo not drawn) [Example 82, 3-(4-Chlorophenyl)-4-(3-fluorophenyl)-N-methyl-N′-((piperidin-1-yl)sulfonyl)-4,5-dihydro-1H-pyrazole-1-carboxamidine]	170
CCN(C)C(=NS(=O)(=O)N1CCCCC1)N1CC(c2ccccc2)C(c2ccc(Cl)cc2)=N1 (stereo not drawn)	178
